In the NIST ThermoML archive (doi:10.1021/je034087q):

Assay: xn = mol fraction of the nth substance listed

CC(C)=O [acetone] + O=C=O
Conditions	mass density [kg/m3]
326.65 K, 9200 kPa, Fluid (supercritical or subcritical phases), x2 = 0.933	535
326.65 K, 9240 kPa, Fluid (supercritical or subcritical phases), x2 = 0.933	540
326.65 K, 9270 kPa, Fluid (supercritical or subcritical phases), x2 = 0.933	544
326.65 K, 9310 kPa, Fluid (supercritical or subcritical phases), x2 = 0.933	549
326.65 K, 9340 kPa, Fluid (supercritical or subcritical phases), x2 = 0.933	553
326.65 K, 9370 kPa, Fluid (supercritical or subcritical phases), x2 = 0.933	559
326.65 K, 9410 kPa, Fluid (supercritical or subcritical phases), x2 = 0.933	563
326.65 K, 9460 kPa, Fluid (supercritical or subcritical phases), x2 = 0.933	569
326.65 K, 9500 kPa, Fluid (supercritical or subcritical phases), x2 = 0.933	574
326.65 K, 9550 kPa, Fluid (supercritical or subcritical phases), x2 = 0.933	579
326.65 K, 9600 kPa, Fluid (supercritical or subcritical phases), x2 = 0.933	584
326.65 K, 9660 kPa, Fluid (supercritical or subcritical phases), x2 = 0.933	590
326.65 K, 9710 kPa, Fluid (supercritical or subcritical phases), x2 = 0.933	594
326.65 K, 9790 kPa, Fluid (supercritical or subcritical phases), x2 = 0.933	601
326.65 K, 9850 kPa, Fluid (supercritical or subcritical phases), x2 = 0.933	606
326.65 K, 9930 kPa, Fluid (supercritical or subcritical phases), x2 = 0.933	612
326.65 K, 10010 kPa, Fluid (supercritical or subcritical phases), x2 = 0.933	617
326.65 K, 10110 kPa, Fluid (supercritical or subcritical phases), x2 = 0.933	625
326.65 K, 10210 kPa, Fluid (supercritical or subcritical phases), x2 = 0.933	630
326.65 K, 10340 kPa, Fluid (supercritical or subcritical phases), x2 = 0.933	637
326.65 K, 10470 kPa, Fluid (supercritical or subcritical phases), x2 = 0.933	643
326.65 K, 10590 kPa, Fluid (supercritical or subcritical phases), x2 = 0.933	650
326.65 K, 10750 kPa, Fluid (supercritical or subcritical phases), x2 = 0.933	656
326.65 K, 10920 kPa, Fluid (supercritical or subcritical phases), x2 = 0.933	663
326.65 K, 11100 kPa, Fluid (supercritical or subcritical phases), x2 = 0.933	670
326.65 K, 11320 kPa, Fluid (supercritical or subcritical phases), x2 = 0.933	677
326.65 K, 11540 kPa, Fluid (supercritical or subcritical phases), x2 = 0.933	684
326.65 K, 11800 kPa, Fluid (supercritical or subcritical phases), x2 = 0.933	691
326.65 K, 12060 kPa, Fluid (supercritical or subcritical phases), x2 = 0.933	699
326.65 K, 12380 kPa, Fluid (supercritical or subcritical phases), x2 = 0.933	708
326.65 K, 12730 kPa, Fluid (supercritical or subcritical phases), x2 = 0.933	715
326.65 K, 13140 kPa, Fluid (supercritical or subcritical phases), x2 = 0.933	723
326.65 K, 13580 kPa, Fluid (supercritical or subcritical phases), x2 = 0.933	731
326.65 K, 14060 kPa, Fluid (supercritical or subcritical phases), x2 = 0.933	741
326.65 K, 14600 kPa, Fluid (supercritical or subcritical phases), x2 = 0.933	749
328.15 K, 9370 kPa, Fluid (supercritical or subcritical phases), x2 = 0.902	632
328.15 K, 9490 kPa, Fluid (supercritical or subcritical phases), x2 = 0.902	640
328.15 K, 9620 kPa, Fluid (supercritical or subcritical phases), x2 = 0.902	645
328.15 K, 9720 kPa, Fluid (supercritical or subcritical phases), x2 = 0.902	650
328.15 K, 9780 kPa, Fluid (supercritical or subcritical phases), x2 = 0.902	654
328.15 K, 9910 kPa, Fluid (supercritical or subcritical phases), x2 = 0.902	657
328.15 K, 10020 kPa, Fluid (supercritical or subcritical phases), x2 = 0.902	662
328.15 K, 10150 kPa, Fluid (supercritical or subcritical phases), x2 = 0.902	669
328.15 K, 10330 kPa, Fluid (supercritical or subcritical phases), x2 = 0.902	673
328.15 K, 10480 kPa, Fluid (supercritical or subcritical phases), x2 = 0.902	679
328.15 K, 10610 kPa, Fluid (supercritical or subcritical phases), x2 = 0.902	684
328.15 K, 10820 kPa, Fluid (supercritical or subcritical phases), x2 = 0.902	688
328.15 K, 11020 kPa, Fluid (supercritical or subcritical phases), x2 = 0.902	695
328.15 K, 11200 kPa, Fluid (supercritical or subcritical phases), x2 = 0.902	700
328.15 K, 11440 kPa, Fluid (supercritical or subcritical phases), x2 = 0.902	705
328.15 K, 11720 kPa, Fluid (supercritical or subcritical phases), x2 = 0.902	711
328.15 K, 11920 kPa, Fluid (supercritical or subcritical phases), x2 = 0.902	716
328.15 K, 12230 kPa, Fluid (supercritical or subcritical phases), x2 = 0.902	721
328.15 K, 12460 kPa, Fluid (supercritical or subcritical phases), x2 = 0.902	727
328.15 K, 12780 kPa, Fluid (supercritical or subcritical phases), x2 = 0.902	733
328.15 K, 12970 kPa, Fluid (supercritical or subcritical phases), x2 = 0.902	737
328.15 K, 13310 kPa, Fluid (supercritical or subcritical phases), x2 = 0.902	739
328.15 K, 13640 kPa, Fluid (supercritical or subcritical phases), x2 = 0.902	748
328.15 K, 13900 kPa, Fluid (supercritical or subcritical phases), x2 = 0.902	748
328.15 K, 14180 kPa, Fluid (supercritical or subcritical phases), x2 = 0.902	754
328.15 K, 14600 kPa, Fluid (supercritical or subcritical phases), x2 = 0.902	758
328.15 K, 14820 kPa, Fluid (supercritical or subcritical phases), x2 = 0.902	761
328.15 K, Liquid, Other PVT measurement, x2 = 0.902	626
333.15 K, 9750 kPa, Fluid (supercritical or subcritical phases), x2 = 0.902	573
333.15 K, 9830 kPa, Fluid (supercritical or subcritical phases), x2 = 0.902	579
333.15 K, 9880 kPa, Fluid (supercritical or subcritical phases), x2 = 0.902	582
333.15 K, 9920 kPa, Fluid (supercritical or subcritical phases), x2 = 0.902	585
333.15 K, 9990 kPa, Fluid (supercritical or subcritical phases), x2 = 0.902	590
333.15 K, 10050 kPa, Fluid (supercritical or subcritical phases), x2 = 0.902	594
333.15 K, 10100 kPa, Fluid (supercritical or subcritical phases), x2 = 0.902	599
333.15 K, 10180 kPa, Fluid (supercritical or subcritical phases), x2 = 0.902	603
333.15 K, 10250 kPa, Fluid (supercritical or subcritical phases), x2 = 0.902	607
333.15 K, 10320 kPa, Fluid (supercritical or subcritical phases), x2 = 0.902	610
333.15 K, 10380 kPa, Fluid (supercritical or subcritical phases), x2 = 0.902	614
333.15 K, 10500 kPa, Fluid (supercritical or subcritical phases), x2 = 0.902	619
333.15 K, 10610 kPa, Fluid (supercritical or subcritical phases), x2 = 0.902	626
333.15 K, 10750 kPa, Fluid (supercritical or subcritical phases), x2 = 0.902	631
333.15 K, 10850 kPa, Fluid (supercritical or subcritical phases), x2 = 0.902	636
333.15 K, 10920 kPa, Fluid (supercritical or subcritical phases), x2 = 0.902	641
333.15 K, 11080 kPa, Fluid (supercritical or subcritical phases), x2 = 0.902	646
333.15 K, 11170 kPa, Fluid (supercritical or subcritical phases), x2 = 0.902	650
333.15 K, 11280 kPa, Fluid (supercritical or subcritical phases), x2 = 0.902	654
333.15 K, 11490 kPa, Fluid (supercritical or subcritical phases), x2 = 0.902	660
333.15 K, 11690 kPa, Fluid (supercritical or subcritical phases), x2 = 0.902	666
333.15 K, 11820 kPa, Fluid (supercritical or subcritical phases), x2 = 0.902	671
333.15 K, 12000 kPa, Fluid (supercritical or subcritical phases), x2 = 0.902	676
333.15 K, 12230 kPa, Fluid (supercritical or subcritical phases), x2 = 0.902	682
333.15 K, 12390 kPa, Fluid (supercritical or subcritical phases), x2 = 0.902	687
333.15 K, 12560 kPa, Fluid (supercritical or subcritical phases), x2 = 0.902	690
333.15 K, 12840 kPa, Fluid (supercritical or subcritical phases), x2 = 0.902	697
333.15 K, 13010 kPa, Fluid (supercritical or subcritical phases), x2 = 0.902	700
333.15 K, 13280 kPa, Fluid (supercritical or subcritical phases), x2 = 0.902	705
333.15 K, 13630 kPa, Fluid (supercritical or subcritical phases), x2 = 0.902	711
333.15 K, 13800 kPa, Fluid (supercritical or subcritical phases), x2 = 0.902	716
333.15 K, 13980 kPa, Fluid (supercritical or subcritical phases), x2 = 0.902	719
333.15 K, 14280 kPa, Fluid (supercritical or subcritical phases), x2 = 0.902	723
333.15 K, 14460 kPa, Fluid (supercritical or subcritical phases), x2 = 0.902	726
333.15 K, 14830 kPa, Fluid (supercritical or subcritical phases), x2 = 0.902	733
333.15 K, Liquid, Other PVT measurement, x2 = 0.902	570
335.15 K, 9800 kPa, Fluid (supercritical or subcritical phases), x2 = 0.909	532
335.15 K, 9820 kPa, Fluid (supercritical or subcritical phases), x2 = 0.909	535
335.15 K, 9860 kPa, Fluid (supercritical or subcritical phases), x2 = 0.909	539
335.15 K, 9900 kPa, Fluid (supercritical or subcritical phases), x2 = 0.909	543
335.15 K, 9940 kPa, Fluid (supercritical or subcritical phases), x2 = 0.909	548
335.15 K, 10000 kPa, Fluid (supercritical or subcritical phases), x2 = 0.909	551
335.15 K, 10050 kPa, Fluid (supercritical or subcritical phases), x2 = 0.909	558
335.15 K, 10100 kPa, Fluid (supercritical or subcritical phases), x2 = 0.909	562
335.15 K, 10160 kPa, Fluid (supercritical or subcritical phases), x2 = 0.909	567
335.15 K, 10220 kPa, Fluid (supercritical or subcritical phases), x2 = 0.909	572
335.15 K, 10280 kPa, Fluid (supercritical or subcritical phases), x2 = 0.909	578
